According to patent US20230174464A1, “MYRISTOYL DERIVATIVES OF 9-AMINO-DOXYCYCLINE FOR TARGETING CANCER STEM CELLS AND PREVENTING METASTASIS” (LUNELLA BIOTECH, INC., priority 2020, published 2023):
Where two headings read alike, the source gives them in different places.

Experiments:
[1] = system: MCF7 cells; assay: Cell viability (SRB) assay, MCF7 2D-monolayers; format: cell-based, human; settings: 3 days, 5 to 20 μM
Experimental: (§1) Cell Viability Assay: The Sulphorhodamine (SRB) assay is based on the measurement of cellular protein content. After treatment for 72 h in 96-well plates, (8,000 cells/well), cells were fixed with 10% trichloroacetic acid (TCA) for 1 hour in the cold room, and were dried overnight at room temperature. Then, cells were incubated with SRB for 15 min, washed twice with 1% acetic acid, and air dried for at least 1 hour. Finally, the protein-bound dye was dissolved in a 10 mM Tris, pH 8.8, solution and read using the plate reader at 540-nm.

[2] = system: CSC burden in early breast cancer patients; settings: oral 200 mg/day for 14 days; cited from earlier work
[3] = system: MCF7 cells; assay: Cell proliferation, xCELLigence RTCA; format: cell-based, human; settings: MCF7 2D-monolayers, relative to control (no treatment)
Experimental: Cell Proliferation: Briefly, MCF7 cells or hTERT-BJ1 fibroblasts were seeded in each well (10,000 cells/well) and employed to assess the efficacy of Doxycycline and Doxy-Myr, using RTCA (real-time cell analysis), via the measurement of cell-induced electrical impedance plate (Acea Biosciences Inc.). This approach allows the quantification of the onset and kinetics of the cellular response. Experiments were repeated several times independently, using quadruplicate samples for each condition.

[4] = system: Staphylococcus aureus (ATCC 29213); assay: Bacterial growth assay (broth microdilution, resazurin); format: cell-based; settings: S. aureus, Gram-positive, 100-0.78 μM
Experimental: (§2) Bacterial Growth Assays: Briefly, antibiotic activity was assessed using standard assay systems. The antibiotic activity of Doxycycline analogues was determined experimentally, using Resazurin (R7017; Sigma-Aldrich, Inc.) as a probe, in a 96-well plate format, using standard strains of E. coli and S. aureus. The minimum inhibitory concentration (MIC) for the studied compounds was determined using the broth microdilution method, the reference susceptibility test for rapidly growing aerobic or facultative microorganism. The assays were performed according to the Clinical and Laboratory Standards Institute (CLSI) guidelines. The test compounds and positive control (doxycycline, Sigma Aldrich #D1822) stock solutions were prepared at 25 mM in DMSO and serially diluted (2-fold dilution from 200-1.56 tiM) in cation adjusted Mueller Hinton Broth (MHB, Sigma Aldrich #90922) in 96 well transparent plates (VWR #734-2781) into a final volume of 50 μL/well. Staphylococcus aureus (ATCC 29213) and E. coli (ATCC 25922) cultures were grown overnight at 37° C. in Mueller Hinton Agar (MHA, Sigma Aldrich #70191). A single colony of each strain was then grown overnight at 37° C. in MHB until OD600˜0.6-0.8 and further diluted into MHB to a concentration of […] colony forming units (CFU)/mL, which was equivalent to an OD600˜0.01. Then, 50 μL of the diluted inoculums was transferred to the wells of the previously prepared 96-well plates containing the test compounds, negative control (1% DMSO in MHB) and positive control (doxycycline). Final wells volume was 100 μL, final concentrations for the testing compounds were between 100-0.78 μM and final microorganism concentration was 5×10^5 CFU/mL. Subsequently, 10 uL of one negative control well was plated in a petri dish containing MHA to check CFU and the purity of the cultures. The plates were incubated at 37° C. for 24 h after which 20 tit of resazurin solution (0.2 mg/mL) was added to the wells followed by 1 h30 min incubation at 37° C. The OD570 and OD600 were measured in a microplate reader (BMG FLUOstar Omega). […] MIC values were determined by three independent experiments.

[5] = system: chick embryo; assay: CAM assay, embryo tolerability / toxicity; format: in vivo; settings: for Dead / Alive: number of embryos
Experimental: a) Preparation of Chicken Embryos. […] At that moment (E9), the chorioallantoic membrane (CAM) was dropped down by drilling a small hole through the eggshell into the air sac, and a 1 cm^2 window was cut in the eggshell above the CAM.
e) Embryo Tolerability Assay. Before each administration, the treatment tolerability was evaluated by scoring the number of dead embryos.

[6] = system: normal human fibroblasts (hTERT-BJ1); assay: Cell viability (SRB) assay, normal fibroblasts 2D-monolayers; format: cell-based; settings: hTERT-BJ1 2D-monolayers, 3 days, 5 to 20 μM
Experimental: as §1

[7] = system: E. coli (ATCC 25922); assay: Bacterial growth assay (broth microdilution, resazurin); format: cell-based, Escherichia coli; settings: Gram-negative, 100-0.78 μM
Experimental: as §2

[8] = system: MCF7 CSCs; assay: 3D-mammosphere formation assay; format: cell-based, human; settings: for IC50: 5 days, non-adherent conditions, read-out: IC50 for inhibiting 3D anchorage-independent propagation (mammosphere formation)
Experimental: For the 3D-Mammosphere Assay, a single cell suspension of MCF7 cells was prepared using enzymatic (lx Trypsin-EDTA, Sigma Aldrich) and manual disaggregation (25-gauge needle). Cells were then plated at a density of 500 cells/cm^2 in mammosphere medium (DMEM-F12/B27/EGF (20-ng/ml)/PenStrep) in non-adherent conditions, in culture dishes coated with (2-hydroxyethylmethacrylate) (poly-HEMA, Sigma). Cells were grown for 5 days and maintained in a humidified incubator at 37° C. at an atmospheric pressure in 5% (v/v) carbon dioxide/air. After 5 days in culture, spheres>50 μm were counted using an eye-piece graticule, and the percentage of cells plated which formed spheres was calculated and is referred to as percent mammosphere formation, normalized to vehicle-alone treated controls. Mammosphere assays were performed in triplicate and repeated three times independently.

[9] = system: MCF7 cells; assay: Cell cycle analysis (FACS); format: cell-based, human; settings: MCF7 2D-monolayers, 72 hours, 10 μM
Experimental: Cell Cycle Analysis: Performed on MCF7 cells treated with Doxycycline, Doxy-Myr or vehicle-alone. Briefly, after trypsinization, the re-suspended cells were incubated with 10 ng/ml of Hoechst solution (Thermo Fisher Scientific) for 40 min at 37° C. under dark conditions. Following a 40 min period, the cells were washed and re-suspended in PBS Ca/Mg for acquisition on the Attune NxT flow cytometer (Thermo Scientific). 10,000 events per condition were analyzed. Gated cells were manually-categorized into cell-cycle stages.

Row | SMILES | effect on cell viability [1] | effect on proliferation [3] | antibiotic activity (growth inhibition) [4] | % Dead ([5]; 0.125 mM) | Dead ([5]; 0.125 mM) | % Dead ([5]; 0.250 mM) | Dead ([5]; 0.250 mM) | effect on cell viability [6] | antibiotic activity (growth inhibition) [7] | IC50 ([8]; Homo sapiens, MCF7, 120 h) | other results
1 | C[C@H]1c2cccc(O)c2C(=O)C2=C(O)[C@]3(O)C(=O)C(C(N)=O)=C(O)[C@@H](N(C)C)C3[C@@H](O)C21 (stereo partly drawn) [Doxycycline, (4S,5 S,6R,12aS)-4-(dimethylamino)-3,5,10,12,12a-pentahydroxy-6-methyl-1,11-dioxo-4a,5,5 a,6-tetrahydro-4H-tetracene-2-carboxamide] | no appreciable effects on cell viability | did not inhibit the proliferation | potently and effectively inhibits the growth | 15.38% | 2 | 23.08% | 3 | no appreciable effects on cell viability | potently and effectively inhibits the growth |  | positive response rate [2]: ~90%; embryo toxicity ([5]; in vivo): little-to-no embryo toxicity
2 | CCCCCCCCCCCC(=O)Nc1ccc2c(c1O)C(=O)C1=C(O)[C@]3(O)C(=O)C(C(N)=O)=C(O)[C@@H](N(C)C)C3[C@@H](O)C1[C@H]2C (stereo partly drawn) [Doxy-Laur, (4S,5S,6R,12aS)-4-(dimethylamino)-9-(dodecanoylamino)-3,5,10,12,12a-pentahydroxy-6-methyl-1,11-dioxo-4a,5,5a,6-tetrahydro-4H-tetracene-2-carboxamide] |  |  | did not show any antibiotic activity |  |  |  |  |  | did not show any antibiotic activity | 5.8 µM | 
3 | C[C@H]1c2ccc(NC(=O)CCCCC[P+](c3ccccc3)(c3ccccc3)c3ccccc3)c(O)c2C(=O)C2=C(O)[C@]3(O)C(=O)C(C(N)=O)=C(O)[C@@H](N(C)C)C3[C@@H](O)C21.C[C@H]1c2ccc(NC(=O)CCCCC[P+](c3ccccc3)(c3ccccc3)c3ccccc3)c(O)c2C(=O)C2=C(O)[C@]3(O)C(=O)C(C(N)=O)=C(O)[C@@H](N(C)C)C3[C@@H](O)C21.O=C([O-])C(=O)[O-] (stereo partly shown) [Doxy-TPP] |  |  |  |  |  |  |  |  |  |  | inhibitory potency compared with Doxycycline [8]: not more potent that Doxycycline
4 | CCCCCCCCCCCCCCCC(=O)Nc1ccc2c(c1O)C(=O)C1=C(O)[C@]3(O)C(=O)C(C(N)=O)=C(O)[C@@H](N(C)C)C3[C@@H](O)C1[C@H]2C (stereo partly drawn) [Doxy-Pal, (4S,5S,6R,12 aS)-4-(dimethylamino)-9-(hexadecanoylamino)-3,5,10,12,12a-pentahydroxy-6-methyl-1,11-dioxo-4a,5,5 a,6-tetrahydro-4H-tetracene-2-carboxamide] |  |  | did not show any antibiotic activity |  |  |  |  |  | did not show any antibiotic activity | 10.4 µM | 
5 | CCCCCCCCCCCCCC(=O)Nc1ccc2c(c1O)C(=O)C1=C(O)[C@]3(O)C(=O)C(C(N)=O)=C(O)[C@@H](N(C)C)C3[C@@H](O)C1[C@H]2C (stereo partly drawn) [Doxy-Myr, (4S,5S,6R,12aS)-4-(dimethylamino)-3,5,10,12,12a-pentahydroxy-6-methyl-1,11-dioxo-9-(tetradecanoylamino)-4a,5,5a,6-tetrahydro-4H-tetracene-2-carboxamide] | no appreciable effects on cell viability | did not inhibit the proliferation | did not show any antibiotic activity | 21.43% | 3 | 7.69% | 1 | no appreciable effects on cell viability | did not show any antibiotic activity |  | IC50 [8]: 3.46 µM; % Alive ([5]; 0.125 mM): 78.57%; Alive ([5]; 0.125 mM): 11; % Alive ([5]; 0.250 mM): 92.31%; Alive ([5]; 0.250 mM): 12; embryo toxicity ([5]; CAM assay): little-to-no embryo toxicity; effect on cell cycle progression [9]: did not have any significant effects on reducing cell cycle progression
